Values after ≈ are worked out from the molar mass of the structure shown. Values joined by “and” are separate entries in the source; they are usually repeats but may differ in a detail not shown here. Equal values may be shown once. Read-outs that look alike come from different tables or passages of the source. Blank lines part the entries; values can stand above or below the compound they belong to. Where a SMILES comes first, the peptide text is derived from it. [ ]: non-standard residue; d: D form. Ala(6-iPr-benzothiazol-2-yl) = CC(C)c1ccc2nc(C[C@H](N)C(=O)O)sc2c1; Ala(benzothiazol-2-yl) = N[C@@H](Cc1nc2ccccc2s1)C(=O)O; Phe(3-CF3) = N[C@@H](Cc1cccc(C(F)(F)F)c1)C(=O)O; Phe(3,5-F2) = N[C@@H](Cc1cc(F)cc(F)c1)C(=O)O; Phe(3-CN) = N#Cc1cccc(C[C@H](N)C(=O)O)c1; 2Nal = N[C@@H](Cc1ccc2ccccc2c1)C(=O)O; hPhe = N[C@@H](CCc1ccccc1)C(=O)O
Tests used:
NRF2 mRNA = experiment: qRT-PCR of NRF2 mRNA in THLE2 cells; assay type: cell-based; details: THLE2, 10 µM
Source text: Total RNA in treated cells was isolated with the RNeasy Mini Kit (Qiagen, Germantown, MD). RNA was reverse transcribed into complementary DNA (cDNA) using high capacity RNA-to-cDNA kit (Applied Biosystems, Carlsbad, California). […] GAPDH was used as an internal reference. […] Error bars correspond to SD from three independent experiments.

DCN5 = biological target: T1, DCN5 (Homo sapiens, UniProt Q9BTE7); experiment: Label-free BLI assay, DCN5; assay type: binding; details: concentrations up to 10 µM
T1 construct: DCN2 (residues 62–259), DCN3 (residues 86–304), DCN4 (residues 102–292) and DCN5 (residues 47–237); His6-TEV (N, cleaved yes); made in house; host or cells: Rosetta2 cells (E. coli)
T1 sequence (Q9BTE7 47-237): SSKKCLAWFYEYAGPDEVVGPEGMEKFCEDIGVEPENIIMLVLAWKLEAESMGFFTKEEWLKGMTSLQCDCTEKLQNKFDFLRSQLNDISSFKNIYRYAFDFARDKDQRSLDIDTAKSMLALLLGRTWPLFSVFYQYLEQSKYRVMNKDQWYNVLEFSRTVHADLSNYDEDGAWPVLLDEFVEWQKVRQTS

DCN3 = biological target: T2, DCN3 (Homo sapiens, UniProt Q8IWE4); experiment: Label-free BLI assay, DCN3; assay type: binding; details: concentrations up to 10 µM
T2 construct: DCN2 (residues 62–259), DCN3 (residues 86–304), DCN4 (residues 102–292) and DCN5 (residues 47–237); His6-TEV (N, cleaved yes); made in house; host or cells: Rosetta2 cells (E. coli)
T2 sequence (Q8IWE4 86-304): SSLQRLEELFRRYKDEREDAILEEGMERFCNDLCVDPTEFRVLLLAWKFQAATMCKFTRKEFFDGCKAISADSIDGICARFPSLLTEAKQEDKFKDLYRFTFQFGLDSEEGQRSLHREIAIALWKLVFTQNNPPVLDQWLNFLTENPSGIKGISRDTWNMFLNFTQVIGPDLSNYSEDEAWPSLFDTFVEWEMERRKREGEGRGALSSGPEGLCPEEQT

DCN4 = biological target: T3, DCN4 (Homo sapiens, UniProt Q92564); experiment: Label-free BLI assay, DCN4; assay type: binding; details: concentrations up to 10 µM
T3 construct: DCN2 (residues 62–259), DCN3 (residues 86–304), DCN4 (residues 102–292) and DCN5 (residues 47–237); His6-TEV (N, cleaved yes); made in house; host or cells: Rosetta2 cells (E. coli)
T3 sequence (Q92564 102-292): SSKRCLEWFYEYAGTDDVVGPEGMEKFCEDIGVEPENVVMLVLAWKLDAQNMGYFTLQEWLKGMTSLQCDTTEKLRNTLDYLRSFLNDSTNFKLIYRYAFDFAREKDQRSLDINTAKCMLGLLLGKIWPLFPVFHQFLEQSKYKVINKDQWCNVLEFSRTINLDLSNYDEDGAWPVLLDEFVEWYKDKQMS

DCN1 = DCN1 (Homo sapiens, UniProt Q96GG9); experiment: Competitive fluorescence polarization (FP) binding assay with probe 46, DCN1; design: Human DCN1 (residues 58–259) were cloned into a pDEST17 plasmid containing an N-terminal His6 tag; made in house; host or cells: Rosetta2 cells (E. coli); details: for Ki: competitive FP, probe 46 5 nM, DCN1 50 nM
DCN1, sequence (Q96GG9 58-259): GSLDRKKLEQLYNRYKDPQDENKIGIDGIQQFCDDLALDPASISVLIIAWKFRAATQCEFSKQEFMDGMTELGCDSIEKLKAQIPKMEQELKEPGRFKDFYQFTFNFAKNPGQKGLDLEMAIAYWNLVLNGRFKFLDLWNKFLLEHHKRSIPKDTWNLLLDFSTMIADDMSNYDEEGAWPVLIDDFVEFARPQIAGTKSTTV
Description: The FP competitive binding experiments were performed to determine the binding affinities of all synthesized DCN1 inhibitors. […] Serial dilutions of DCN1 or DCN2 protein were mixed with the probe (46) to a final volume of 200 μl in the assay buffer (100 mM phosphate buffer, pH = 6.5, with 0.02% Tween-20 and 2% DMSO). The final probe concentration was 5 nM in both DCN1 and DCN2 assays. Plates were incubated at room temperature for 30 min with gentle shaking for equilibrium.
The IC50 and Ki values of compounds were determined in competitive binding experiments. Mixtures of compounds in DMSO (4 μl) and of pre-incubated protein/probe complex solution (196 μl) in the assay buffer were added into assay plates that were incubated at room temperature for 30 min with gentle shaking. Final concentrations of DCN1 protein and fluorescent probe (46) were 50 and 5 nM, respectively. […] FP values were measured as described above. IC50 values were determined by nonlinear regression fitting of the competition curves using the dose response inhibition equation (four parameters, variable slopes) included in the Prism/GraphPad software. K i values were calculated using the methods described earlier.

[1] = thermodynamic from solid
Description: (§1) The equilibrium aqueous solubility of an individual compound at different pH values was determined with a small-scale shake-flask method in Eppendorf tubes. Compounds were added as powder in excess to Britton-Robinson buffer at pH 2.0 or phosphate buffer at pH 7.4 until heterogeneous suspensions were obtained. Suspensions containing excessive compound powder were sonicated in a water bath for 30 min followed by incubation at room temperature with shaking for 24 h to achieve thermodynamic equilibrium. […] Supernatants obtained were filtered using Millipore MultiScreen filter plates equipped with 0.45 µm membranes. Compound concentrations in the saturated solutions were measured by UV spectroscopy at the maximum absorption wavelengths of each compound that were pre-determined by a spectrum scan.

[2] = Equilibrium aqueous solubility, small-scale shake-flask method; details: for solubility / solubility at 24 h: thermodynamic from solid
Description: as §1

[3] = Britton-Robinson buffer, pH 2.02, aqueous buffer
[4] = phosphate buffer, pH 7.4, aqueous buffer

SMILES: CCC(=O)N[C@H](Cc1nc2ccc(C(C)C)cc2s1)C(=O)N[C@@H](CNC(=O)CCN1CCOCC1)C1CCCCC1 [DI-591DD]
mRNA level of NRF2 (in words) (NRF2 mRNA): no effect
binding to DCN5 (in words) (DCN5): no appreciable binding
binding to DCN3 (in words) (DCN3): no appreciable binding
binding to DCN4 (in words) (DCN4): no appreciable binding

SMILES: CC[C@H](C)[C@H](NC(=O)[C@H](CCSC)NC(C)=O)C(=O)N[C@@H](CCCCN)C(=O)N[C@@H](CC(C)C)C(N)=O [compound 9] (Ac-MIKL-NH2)
Ki (DCN1): 50 µM

SMILES: CC[C@H](C)[C@H](NC(=O)[C@H](CCSC)NC(C)=O)C(=O)N[C@@H](CCCCN)C(N)=O [compound 10] (Ac-Met-Ile-Lys-NH2)
binding to DCN1 (in words) (DCN1; at concentrations up to 1,000 µM): no appreciable binding
Ki (DCN1): > 1000 µM

SMILES: CC[C@H](C)[C@H](NC(=O)[C@H](CCc1ccccc1)NC(C)=O)C(=O)N[C@@H](CCCCN)C(=O)N[C@@H](CC(C)C)C(N)=O [compound 12] (Ac-[hPhe]IKL-NH2)
factor by which binding affinity to DCN1 is decreased (DCN1; homophenylalanine in place of Met1, compared with 9/11): 6

SMILES: CC[C@H](C)[C@H](NC(=O)[C@H](Cc1cccc(C(F)(F)F)c1)NC(C)=O)C(=O)N[C@@H](CCCCN)C(=O)N[C@@H](CC(C)C)C(N)=O [compound 17] (Ac-[Phe(3-CF3)]IKL-NH2)
Ki (DCN1): > 1000 µM

SMILES: CC[C@H](C)[C@H](NC(=O)[C@H](Cc1c[nH]c2ccccc12)NC(C)=O)C(=O)N[C@@H](CCCCN)C(=O)N[C@@H](CC(C)C)C(N)=O [compound 21] (Ac-WIKL-NH2)
Ki (DCN1): 82 µM

SMILES: CC[C@H](C)[C@H](NC(=O)[C@H](Cc1ccc2ccccc2c1)NC(C)=O)C(=O)N[C@@H](CCCCN)C(=O)N[C@@H](CC(C)C)C(N)=O [compound 23] (Ac-[2Nal]IKL-NH2)
times more potent than 11 in binding to DCN1 (DCN1; comparator 11): 11 times

SMILES: CC[C@H](C)[C@H](NC(=O)[C@H](Cc1nc2ccc(C(C)C)cc2s1)NC(C)=O)C(N)=O [compound 29]
Ki (DCN1): 0.292 µM
solubility at 24 h [2, 3]: 1050 µM (≈ 440 µg/mL)
solubility at 24 h [2, 4]: 1280 µM (≈ 535 µg/mL)

SMILES: CC[C@H](C)[C@@H](CN)NC(=O)[C@H](Cc1nc2ccc(C(C)C)cc2s1)NC(C)=O [compound 30]
Ki (DCN1): 0.066 µM and 0.0664 µM
solubility at 24 h ([2]; Britton-Robinson buffer, pH 2, aqueous buffer): > 20000 µM
solubility at 24 h [2, 3]: > 20000 µM
solubility at 24 h [2, 4]: > 20000 µM

More lines, now with the values ahead:

Ki (DCN1): > 1000 µM
SMILES: CC[C@H](C)[C@H](NC(=O)[C@H](Cc1cccc(C#N)c1)NC(C)=O)C(=O)N[C@@H](CCCCN)C(=O)N[C@@H](CC(C)C)C(N)=O [compound 16] (Ac-[Phe(3-CN)]IKL-NH2)

Ki (DCN1): 82 ± 9.1 µM
SMILES: CC[C@H](C)[C@H](NC(=O)[C@H](Cc1cc(F)cc(F)c1)NC(C)=O)C(=O)N[C@@H](CCCCN)C(=O)N[C@@H](CC(C)C)C(N)=O [compound 20] (Ac-[Phe(3,5-F2)]IKL-NH2)

solubility ([1]; pH 2.02, aqueous buffer): 1480 µM (≈ 912 µg/mL)
solubility ([1]; pH 7.4, aqueous buffer): 251 µM (≈ 155 µg/mL)
SMILES: CC[C@H](C)[C@H](NC(=O)[C@H](Cc1nc2ccccc2s1)NC(C)=O)C(=O)N[C@@H](CCCCN)C(=O)N[C@@H](CC(C)C)C(N)=O [compound 24] (Ac-[Ala(benzothiazol-2-yl)]IKL-NH2)

times less potent than 24 in binding to DCN1 (DCN1; comparator 24): 17 times
SMILES: CC[C@H](C)[C@H](NC(=O)[C@H](Cc1nc2cc(Cl)ccc2s1)NC(C)=O)C(=O)N[C@@H](CCCCN)C(=O)N[C@@H](CC(C)C)C(N)=O [compound 25]

times more potent than 24 in binding to DCN1 (DCN1; comparator 24): 4 times
SMILES: CC[C@H](C)[C@H](NC(=O)[C@H](Cc1nc2ccc(Cl)cc2s1)NC(C)=O)C(=O)N[C@@H](CCCCN)C(=O)N[C@@H](CC(C)C)C(N)=O [compound 26]

times more potent than 9 in binding to DCN1 (DCN1; comparator tetrapeptide 9): > 10,000 times
Ki (DCN1): 0.0047 ± 0.0014 µM
aqueous solubility (in words) [2]: poor
solubility ([2]; pH 2.02, aqueous buffer): 227 µM (≈ 150 µg/mL)
solubility ([2]; pH 7.4, aqueous buffer): 31 µM (≈ 20.5 µg/mL)
SMILES: CC[C@H](C)[C@H](NC(=O)[C@H](Cc1nc2ccc(C(C)C)cc2s1)NC(C)=O)C(=O)N[C@@H](CCCCN)C(=O)N[C@@H](CC(C)C)C(N)=O [compound 27] (Ac-[Ala(6-iPr-benzothiazol-2-yl)]IKL-NH2)

times less potent than 27 in binding to DCN1 (DCN1; comparator 27): 37 times
Ki (DCN1): 0.174 ± 0.023 µM
solubility ([2]; pH 2.02, aqueous buffer): > 20000 µM
solubility ([2]; pH 7.4, aqueous buffer): 7470 µM (≈ 4090 µg/mL)
SMILES: CC[C@H](C)[C@H](NC(=O)[C@H](Cc1nc2ccc(C(C)C)cc2s1)NC(C)=O)C(=O)N[C@@H](CCCCN)C(N)=O [compound 28]

— PMC5658359, “A potent small-molecule inhibitor of the DCN1-UBC12 interaction that selectively blocks cullin 3 neddylation” (Nature Communications, 2017)
